A short description of series [1]: Fraction unbound in mouse plasma. Format: ADME, cell-free.
Series [2] in a line: Oral bioavailability in Sprague-Dawley rat plasma at 2 mg/kg administered as gastric bolus dose by LC-MS/MS analysis. The class given is ADME, organism-based.
Series [3] deals with Epidermal growth factor receptor (Homo sapiens, UniProt P00533). Nature of the series: Inhibition of EGFR (unknown origin).
Series [4] in a line: Selectivity index, ratio of IC50 for full length His6-tagged BRAF (unknown origin) expressed in baculovirus expression system to IC50 for human full length His/MBP-fused TNNI3K expressed in baculovirus expression system.
The nature of series [5]: Clearance in Sprague-Dawley rat plasma at 1 mg/kg, iv administered as 30 mins infusion by LC-MS/MS analysis. The class given is ADME, organism-based.
In series [6] the test system is Rattus norvegicus. The experiment in a line: Dose normalized AUC in Sprague-Dawley rat plasma at 2 mg/kg, po administered as gastric bolus dose by LC-MS/MS analysis. The class given is ADME, organism-based. As to conditions: in vivo.
The target in series [7] is Serine/threonine-protein kinase B-raf (Homo sapiens, UniProt P15056). Nature of the series: Inhibition of full length His6-tagged BRAF (unknown origin) expressed in baculovirus expression system assessed as reduction in MEK phosphorylation by measuring ADP production by BRAMA.
Serine/threonine-protein kinase B-raf, sequence (P15056 whole entry, the tested form may be a part): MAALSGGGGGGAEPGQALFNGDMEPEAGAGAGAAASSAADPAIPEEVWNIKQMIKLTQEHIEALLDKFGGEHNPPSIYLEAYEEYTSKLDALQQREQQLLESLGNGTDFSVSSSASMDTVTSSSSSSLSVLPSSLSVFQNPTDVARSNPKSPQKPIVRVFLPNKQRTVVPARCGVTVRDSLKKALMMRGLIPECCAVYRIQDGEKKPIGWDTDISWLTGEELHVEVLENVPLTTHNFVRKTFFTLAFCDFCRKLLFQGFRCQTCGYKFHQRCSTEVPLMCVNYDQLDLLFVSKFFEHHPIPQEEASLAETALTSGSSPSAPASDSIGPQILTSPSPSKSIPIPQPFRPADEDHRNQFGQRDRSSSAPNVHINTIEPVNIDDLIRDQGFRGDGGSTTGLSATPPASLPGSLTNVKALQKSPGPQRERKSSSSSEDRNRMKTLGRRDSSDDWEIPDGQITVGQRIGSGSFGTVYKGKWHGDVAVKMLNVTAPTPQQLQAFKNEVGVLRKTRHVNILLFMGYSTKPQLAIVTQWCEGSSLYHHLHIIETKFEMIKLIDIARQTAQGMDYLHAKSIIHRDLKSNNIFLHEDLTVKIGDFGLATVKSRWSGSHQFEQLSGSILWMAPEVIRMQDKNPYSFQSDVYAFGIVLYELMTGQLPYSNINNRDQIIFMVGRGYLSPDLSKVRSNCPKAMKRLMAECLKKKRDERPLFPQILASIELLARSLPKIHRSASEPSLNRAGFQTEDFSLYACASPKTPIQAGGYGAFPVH
Series [8] is described as follows: Volume of distribution at steady state in Sprague-Dawley rat plasma at 2 mg/kg, po administered as gastric bolus dose or 1 mg/kg, iv administered as 30 mins infusion by LC-MS/MS analysis. Format: ADME, organism-based. As to conditions: read-out: Vdss.
Series [9] concerns the target T1, Serine/threonine-protein kinase TNNI3K (Homo sapiens, UniProt Q59H18).
T1 sequence (Q59H18 whole entry): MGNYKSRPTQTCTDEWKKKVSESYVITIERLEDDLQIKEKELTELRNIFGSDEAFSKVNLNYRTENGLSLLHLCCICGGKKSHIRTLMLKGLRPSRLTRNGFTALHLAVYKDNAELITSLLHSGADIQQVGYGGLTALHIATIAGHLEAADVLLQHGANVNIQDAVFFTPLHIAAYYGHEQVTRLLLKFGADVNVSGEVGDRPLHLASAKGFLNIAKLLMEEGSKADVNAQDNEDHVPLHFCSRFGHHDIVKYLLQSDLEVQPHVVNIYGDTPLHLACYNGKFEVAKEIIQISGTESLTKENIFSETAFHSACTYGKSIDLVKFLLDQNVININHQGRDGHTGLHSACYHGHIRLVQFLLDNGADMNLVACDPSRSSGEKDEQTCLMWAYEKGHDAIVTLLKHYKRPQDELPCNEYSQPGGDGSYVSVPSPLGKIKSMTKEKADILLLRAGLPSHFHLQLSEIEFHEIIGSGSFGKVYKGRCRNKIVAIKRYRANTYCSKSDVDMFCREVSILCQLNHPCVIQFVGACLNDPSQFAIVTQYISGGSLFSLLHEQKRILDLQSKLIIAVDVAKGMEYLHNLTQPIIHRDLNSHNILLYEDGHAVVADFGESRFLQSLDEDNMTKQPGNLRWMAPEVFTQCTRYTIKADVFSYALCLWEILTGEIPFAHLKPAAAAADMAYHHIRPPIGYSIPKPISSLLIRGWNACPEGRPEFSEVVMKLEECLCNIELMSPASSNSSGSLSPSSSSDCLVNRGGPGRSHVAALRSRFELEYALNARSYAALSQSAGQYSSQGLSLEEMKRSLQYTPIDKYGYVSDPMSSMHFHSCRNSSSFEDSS
Nature of the series: Inhibition of 5-({[2-({[3-({4-[(5-hydroxy-2-methylphenyl)amino]-2-pyrimidinyl}amino)phenyl]carbonyl}amino)-ethyl]amino}carbonyl)-2-(6-hydroxy-3-oxo-3H-xanthen-9-yl)benzoic acid binding to human full length His/MBP-fused TNNI3K expressed in baculovirus expression system after 60 mins by fluorescence polarization assay. (In general: Fluorescence polarisation rises when a labelled molecule tumbles more slowly, as on binding a larger partner.)

In series [10] the test system is Heart. The experiment in a line: Drug uptake in mouse heart at 100 mg/kg/day administered through diet. Format: ADME, organism-based. As to conditions: in vivo, read-out: Drug uptake.
The subject of series [11] is Blood. Nature of the series: Unbound drug level in mouse blood at 100 mg/kg/day administered through diet. The class given is ADME, organism-based. As to conditions: in vivo.
For series [12], the target named is T1, Serine/threonine-protein kinase TNNI3K. The experiment in a line: Inhibition of human Myc-tagged TNNI3K autophosphorylation expressed in HEKMSR2 cells after 30 mins by DELFIA. The class given is cell-based.
The test system of series [13] is Blood. The experiment in a line: Drug uptake in mouse blood at 100 mg/kg/day administered through diet. Format: ADME, organism-based. As to conditions: in vivo, read-out: Drug uptake.
Series [14] in a line: Half life in Sprague-Dawley rat plasma at 2 mg/kg, po administered as gastric bolus dose or 1 mg/kg, iv administered as 30 mins infusion by LC-MS/MS analysis. The class given is ADME, organism-based.

Epidermal growth factor receptor, sequence (P00533 whole entry, the tested form may be a part): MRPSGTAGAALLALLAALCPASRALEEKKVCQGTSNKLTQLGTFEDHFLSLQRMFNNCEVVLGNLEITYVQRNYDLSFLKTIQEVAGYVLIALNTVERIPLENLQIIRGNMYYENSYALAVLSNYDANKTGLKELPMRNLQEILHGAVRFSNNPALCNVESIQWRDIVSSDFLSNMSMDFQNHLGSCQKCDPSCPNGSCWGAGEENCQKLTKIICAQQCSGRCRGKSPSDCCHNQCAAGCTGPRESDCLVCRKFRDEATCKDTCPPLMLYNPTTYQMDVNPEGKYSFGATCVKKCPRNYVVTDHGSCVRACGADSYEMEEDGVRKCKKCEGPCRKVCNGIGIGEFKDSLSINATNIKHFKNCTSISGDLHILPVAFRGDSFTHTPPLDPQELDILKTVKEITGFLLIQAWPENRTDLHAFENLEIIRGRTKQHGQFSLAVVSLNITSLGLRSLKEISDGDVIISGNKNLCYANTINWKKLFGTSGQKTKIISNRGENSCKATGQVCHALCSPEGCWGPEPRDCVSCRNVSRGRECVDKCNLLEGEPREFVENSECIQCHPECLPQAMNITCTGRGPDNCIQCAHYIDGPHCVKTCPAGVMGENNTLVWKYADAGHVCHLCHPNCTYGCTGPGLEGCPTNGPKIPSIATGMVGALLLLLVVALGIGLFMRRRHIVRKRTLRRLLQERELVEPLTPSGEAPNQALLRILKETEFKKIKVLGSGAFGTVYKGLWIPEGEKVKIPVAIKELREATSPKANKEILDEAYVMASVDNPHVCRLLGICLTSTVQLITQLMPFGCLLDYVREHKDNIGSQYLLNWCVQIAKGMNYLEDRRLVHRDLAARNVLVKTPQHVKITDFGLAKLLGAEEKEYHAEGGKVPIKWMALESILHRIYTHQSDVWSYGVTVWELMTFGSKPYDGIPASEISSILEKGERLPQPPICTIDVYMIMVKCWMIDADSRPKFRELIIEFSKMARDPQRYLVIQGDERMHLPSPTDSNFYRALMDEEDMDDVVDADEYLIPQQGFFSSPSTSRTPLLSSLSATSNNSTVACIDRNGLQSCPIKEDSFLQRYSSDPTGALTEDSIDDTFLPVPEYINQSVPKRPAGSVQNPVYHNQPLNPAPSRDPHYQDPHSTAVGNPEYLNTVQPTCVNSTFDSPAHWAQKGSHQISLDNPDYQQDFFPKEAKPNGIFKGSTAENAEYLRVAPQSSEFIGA

`CCS(=O)(=O)c1ccc(S(=O)(=O)NC)cc1Nc1cc(Nc2ccc(Cl)cn2)ncn1` registered a fraction unbound in series [1] of 0.035. For the same molecule, the bioavailability in series [2] was 48%. Moreover, the IC50 is > 25000 nM in series [3], 250 nM in series [7], ≤ 10 nM in series [9] and 8 nM in series [12]. Also, in series [4], the “Ratio IC50” value is “>=25”. This molecule also displayed a clearance in [5] of 14 mL/min/kg. Also, the AUC/dose in series [6] came to 0.56 kg·h/L. For the same molecule, in series [8], the Vd was 1.9 L/kg. Moreover, the concentration in series [10] was 1100 nM; in [13], 400 to 1600 nM. Besides, the Drug uptake(free) in series [11] lay within 14 to 56 nM. In series [14], this molecule gave a half-life of 2.3 h.

For orientation: fraction unbound means free concentration divided by total concentration. The bioavailability is dose-corrected exposure relative to a reference, in per cent. Low readings indicate little systemic uptake, high ones much systemic uptake. One may read the IC50 as the concentration that inhibits the measured activity by half. A word on the clearance: it is a measure of how efficiently the substance is removed, as volume per time. High values mean a high capacity for elimination, low ones a low capacity for elimination. By half-life is commonly meant the time needed for the level to fall by half in the phase considered.

The values are drawn from ChEMBL document CHEMBL4020849, “4,6-Diaminopyrimidines as Highly Preferred Troponin I-Interacting Kinase (TNNI3K) Inhibitors” (J Med Chem, 2018).
